Assay results: patent US5658883A, “Biologically active TGF-β1 peptides” (Celtrix Pharmaceuticals, Inc., priority 1995, dated 1997)
Like-named read-outs stand apart in the source and are kept apart here. Blank lines part the entries; values can stand above or below the molecule they belong to. Bridge positions count the residues as written; N and C are the ends. Ends that are not written are not given here. Peptide text beside a SMILES is read from it. I, II: the chains in the order shown.

How the values were obtained:
[1] = target: TGF-β receptor; details: for competing against the binding of 125I-TGF-β1: at concentrations of up to 30 μM
Description: (§1) Rat muscle myoblasts (L6, American Type Culture Collection) were plated in 6-well culture plates and cultured in DMEM supplemented with 100 units/ml penicillin, 100 μg/ml streptomycin, 2 mM L-glutamine, 10% FBS until the cells were 70-90% confluent. Medium was aspirated from the wells; and 1 ml of ice cold 20 mM glycine, 135 mM NaCl, pH 3.0 was added to each well for 2 min. The buffer was aspirated and each well was rinsed 2 times with 1 ml of DMEM, 25 mM Hepes, pH 7.4, 0.1% BSA. […] Radiolabeled TGF-β samples (500 μl ) either without unlabeled TGF-β or with excess unlabeled TGF-β (20-25 nM) were prepared and added to other wells. After 1 hr incubation at room temperature, each well was rinsed 2 times with 1 ml of Hank's balanced saline solution, 0.1% BSA. To each well, 500 μl of 1% Triton X-100, 10% glycerol, 20 mM Hepes, pH 7.4, 0.01% BSA was added and incubated at 37° C. with rotation for 30 min to lyse the cells. Samples were transferred into gamma-counting vials and counted for 1 min each.

[2] = target: TGF-β receptor
Description: as §1

[3] = test system: murine thymocytes; assay: Inhibition of murine thymocyte proliferation (3H-thymidine incorporation); format: cell-based, C3H/HeJ mice
Description: In order to determine the effect of the peptides on proliferation of cell types other than mink lung epithelial cells, murine thymocytes were exposed to the peptides. Proliferation was measured by determining the amount of ^3 H-thymidine incorporated into the thymocyte DNA in response to the peptides. The cell culture assay was performed as described by Ellingsworth et al., Cell. Immunol., 114:41-54 (1988). Single-cell suspensions of thymocytes were prepared from 4 to 8 week old C3H/HeJ mice and the cells were suspended in Eagle's MEM supplemented with 5% fetal calf serum (FCS), 100 units/ml penicillin, 100 μg/ml streptomycin, 2 mM L-glutamine and 50 μM β-mercaptoethanol to 6.66×10^6 cells/ml. The thymocytes were plated into 96-well microtiter plates at 10^6 cells/well (150 μl). The cells were activated with 1.0 μg/ml of phytohemagglutinin and 8 units/ml of interleukin-1 (IL-1) (Boehringer Mannheim, Indianapolis, Ind.). […] The cells were incubated at 37° C. for 72 hr in a humidified incubator in 5% CO2 -95% air atmosphere. The cells were pulsed with 0.5 μCi/well of ^3 H-thymidine 24 hours prior to cell harvest. The thymocytes were harvested onto glass fiber filters and dried. The amount of ^3 H-thymidine incorporation was determined by liquid scintillation counting method.

[4] = test system: Mink lung epithelial cells (Mv1Lu CCL64); assay: Mink lung epithelial cell proliferation inhibition assay; format: cell-based; details: for ED50 (half-maximal inhibition of cell proliferation): 4 days, acid phosphatase readout
Description: TGF-β is known to inhibit proliferation of mink lung epithelial cells. The mink lung epithelial cell assay was thus used to test the ability of the peptides to mimic the biological activity of TGF-β. Mink lung epithelial cells (ATCC, Rockville, Md., Mv1Lu CCL64) were plated at 0.5-1.0×10^6 cells/plate in 100 mm culture plates and grown in Eagle's minimal essential medium (MEM) supplemented with 50 units/ml penicillin, 50 μg/ml streptomycin, nonessential amino acids, L-glutamine, and 10% fetal bovine serum (FBS). Cells were passaged while the cell density was subconfluent. Cells were detached with trypsin, collected by centrifugation at 800×g for 2 min, and resuspended in the culture medium at 20,000 cells/ml. The cells were plated in 96-well microtiter plates at 1000 cells (50 μl)/well. Peptides TGF-β116-31, TGF-β116-47, TGF-β216-31, TGF-β216-47 in monomeric and dimeric forms were lyophilized in the presence of sterile bovine serum albumin (BSA) carrier. Samples (50 μl) of the peptides were dissolved in the cell culture medium and added to the wells in triplicate. Recombinant human TGF-β2 was used as the standard. The plates were incubated under a 5% CO2 /95% (V/V) air atmosphere at 37° C. for 4 days. The number of cells/well in this assay is proportional to the activity of the constitutively expressed enzyme, acid phosphatase. To measure acid phosphatase activity, the wells were rinsed with phosphate-buffered saline (PBS), filled with 100 μl of 0.1M sodium acetate, pH 5.5/0.1% Triton X-100/100 mM p-nitrophenyl phosphate, and the plates were incubated at 37° C. for 2 hr. Ten μl of 1.0N NaOH was added to each well, and after 20 min at room temperature, the absorbance at 405 nm was measured.

[5] = test system: tumor cell proliferation; details: in vitro assays, generally observed; cited from earlier work
[6] = 25 pM 125I-TGF-β2, L6 cells, 1 hr room temperature
[7] = PHA and IL-1 activated thymocytes, 72 hr

Molecule: CC[C@H](C)[C@H](NC(=O)[C@H](Cc1ccc(O)cc1)NC(=O)[C@H](CC(C)C)NC(=O)[C@H](CCC(N)=O)NC(=O)[C@H](CCCNC(=N)N)NC(=O)[C@@H](NC(=O)[C@@H](N)CSSC[C@H](N)C(=O)N[C@H](C(=O)N[C@@H](CCCNC(=N)N)C(=O)N[C@@H](CCC(N)=O)C(=O)N[C@@H](CC(C)C)C(=O)N[C@@H](Cc1ccc(O)cc1)C(=O)N[C@H](C(=O)N[C@@H](CC(=O)O)C(=O)N[C@@H](Cc1ccccc1)C(=O)N[C@@H](CCCNC(=N)N)C(=O)N[C@@H](CCCCN)C(=O)N[C@@H](CC(=O)O)C(=O)N[C@@H](CC(C)C)C(=O)NCC(=O)N[C@@H](Cc1c[nH]c2ccccc12)C(=O)N[C@@H](CCCCN)C(=O)O)[C@@H](C)CC)C(C)C)C(C)C)C(=O)N[C@@H](CC(=O)O)C(=O)N[C@@H](Cc1ccccc1)C(=O)N[C@@H](CCCNC(=N)N)C(=O)N[C@@H](CCCCN)C(=O)N[C@@H](CC(=O)O)C(=O)N[C@@H](CC(C)C)C(=O)NCC(=O)N[C@@H](Cc1c[nH]c2ccccc12)C(=O)N[C@@H](CCCCN)C(=O)O [TGF-β116-31 dimer] (I: H-CVRQLYIDFRKDLGWK-OH / II: H-CVRQLYIDFRKDLGWK-OH; disulfide I:1-II:1)
ED50 (competition against binding of 125I-TGF-β1) [1]: 10000 to 15000 nM
ED50 (competition against binding of 125I-TGF-β2) [2]: 10000 to 15000 nM

Molecule: CVRQLYIDFRKDLGWKWIHEPKGYHANFCLGP [TGF-β116-47 trimer] (cysteine pairing not given here; also: trimer)
ED50 (half-maximal inhibition of cell proliferation) [4]: 32.7 nM

Molecule: TGF-β
concentration at which saturation is achieved [5]: 10 ng/mL
concentration for 50% inhibition of tumor cell proliferation [5]: ~0.2 ng/mL

Molecule: TGF-β1: full length transforming growth factor β1
ED50 (competition against binding of 125I-TGF-β1) ([1]; 25 pM 125I-TGF-β1, L6 cells, 1 hr room temperature): 0.01 to 0.03 nM
Kd ([1]; read-out: apparent dissociation constant, estimated from competitive binding data, 125I-TGF-β1): 0.01 to 0.03 nM

Molecule: TGF-β2: full length transforming growth factor β2, used as the standard
ED50 (inhibition of 3H-thymidine incorporation) [3, 7]: approximately 4 pM

B1: CVRQLYIDFRKDLGWKWIHEPKGYHANFCLGP [TGF-β116-47 dimer] (peptide)
chain 1: CVRQLYIDFRKDLGWKWIHEPKGYHANFCLGP
chain 2: CVRQLYIDFRKDLGWKWIHEPKGYHANFCLGP
modifications: disulfide (positions not given here); also: disulfide-bonded homodimer, Cys pairing not given here
ED50 (competition against binding of 125I-TGF-β1), in words ([1]; 25 pM 125I-TGF-β1, L6 cells): not active
competing against the binding of 125I-TGF-β1 [1]: either inactive or weakly active

Further lines, with some results ahead:

ED50 (competition against binding of 125I-TGF-β2) [2]: 30000 nM
Molecule: CC[C@H](C)[C@H](NC(=O)[C@H](Cc1ccc(O)cc1)NC(=O)[C@H](CC(C)C)NC(=O)[C@@H]1CCCN1C(=O)[C@H](CCCNC(=N)N)NC(=O)[C@H](CC(C)C)NC(=O)[C@@H](N)CSSC[C@H](N)C(=O)N[C@@H](CC(C)C)C(=O)N[C@@H](CCCNC(=N)N)C(=O)N1CCC[C@H]1C(=O)N[C@@H](CC(C)C)C(=O)N[C@@H](Cc1ccc(O)cc1)C(=O)N[C@H](C(=O)N[C@@H](CC(=O)O)C(=O)N[C@@H](Cc1ccccc1)C(=O)N[C@@H](CCCCN)C(=O)N[C@@H](CCCNC(=N)N)C(=O)N[C@@H](CC(=O)O)C(=O)N[C@@H](CC(C)C)C(=O)NCC(=O)N[C@@H](Cc1c[nH]c2ccccc12)C(=O)N[C@@H](CCCCN)C(=O)O)[C@@H](C)CC)C(=O)N[C@@H](CC(=O)O)C(=O)N[C@@H](Cc1ccccc1)C(=O)N[C@@H](CCCCN)C(=O)N[C@@H](CCCNC(=N)N)C(=O)N[C@@H](CC(=O)O)C(=O)N[C@@H](CC(C)C)C(=O)NCC(=O)N[C@@H](Cc1c[nH]c2ccccc12)C(=O)N[C@@H](CCCCN)C(=O)O [TGF-β216-31 dimer] (I: H-CLRPLYIDFKRDLGWK-OH / II: H-CLRPLYIDFKRDLGWK-OH; disulfide I:1-II:1)

ED50 (competition against binding of 125I-TGF-β2), in words ([2]; 25 pM 125I-TGF-β2, L6 cells): inactive
Molecule: CLRPLYIDFKRDLGWK [TGF-β216-31]
activity in thymocyte proliferation assay [3]: inactive
ED50 / activity in words [4]: inactive

ED50 (competition against binding of 125I-TGF-β2) [2, 6]: 30000 nM
competing against the binding of 125I-TGF-β2 ([2]; at concentrations of up to 30 μM): either inactive or weakly active
Molecule: CLRPLYIDFKRDLGWKWIHEPKGYNANFCAGA [TGF-β216-47 monomer]
ED50 / activity in words [4]: not active

ED50 (competition against binding of 125I-TGF-β1), in words ([1]; 25 pM 125I-TGF-β1, L6 cells): not active
competing against the binding of 125I-TGF-β1 [1]: either inactive or weakly active
Molecule: CVRQLYIDFRKDLGWKWIHEPKGYHANFCLGP [TGF-β116-47 monomer]
ED50 / activity in words [4]: some activity
ED50 (half-maximal inhibition of cell proliferation) [4]: 1000 nM

ED50 (competition against binding of 125I-TGF-β2) [2, 6]: 3000 nM
Kd ([2]; read-out: apparent dissociation constant, estimated from competitive binding data, 125I-TGF-β2): ~3000 nM
B2: CLRPLYIDFKRDLGWKWIHEPKGYNANFCAGA [TGF-β216-47 dimer] (peptide)
chain 1: CLRPLYIDFKRDLGWKWIHEPKGYNANFCAGA
chain 2: CLRPLYIDFKRDLGWKWIHEPKGYNANFCAGA
modifications: disulfide (positions not given here); also: disulfide-bonded homodimer, Cys pairing not given here
ED50 (inhibition of thymocyte proliferation) [3, 7]: 57 nM
ED50 (half-maximal inhibition of cell proliferation) [4]: 4 to 14 nM
fold more activity than dimerized TGF-β116-47 ([4]; from ED50): 11-38 fold
